From ChEMBL document CHEMBL3044652, “Synthesis of novel 2-alkyl-4-substituted-amino-pyrazolo[3,4-d]pyrimidines as new leads for anti-bacterial and anti-cancer activity” (2013)

Columns and labels:
Format in all cases: functional
Escherichia coli = test: Antibacterial activity against Escherichia coli NCIM 2803 at 20 ug/ml after 24 hr by agar diffusion method; details: NCIM 2803, 24 h, read-out: IZ
Bacillus subtilis = test: Antibacterial activity against Bacillus subtilis NCIM 2545 at 20 ug/ml after 24 hr by agar diffusion method; details: NCIM 2545, 24 h, read-out: IZ
Staphylococcus aureus = test: Antibacterial activity against Staphylococcus aureus NCIM 5021 at 20 ug/ml after 24 hr by agar diffusion method; details: NCIM 5021, 24 h, read-out: IZ
[1] = system: Staphylococcus epidermidis; test: Antibacterial activity against Staphylococcus epidermidis NCIM 2493 at 20 ug/ml after 24 hr by agar diffusion method; details: NCIM 2493, 24 h, read-out: IZ
G-361 [2] = test: Cytotoxicity against Homo sapiens (human) G361 cells assessed as cell growth at 10^-7 M by SRB assay relative to control; details: read-out: Activity
G-361 [3] = test: Cytotoxicity against Homo sapiens (human) G361 cells assessed as cell growth at 10^-6 M by SRB assay relative to control; details: read-out: Activity
G-361 [4] = test: Cytotoxicity against Homo sapiens (human) G361 cells assessed as cell growth at 10^-5 M by SRB assay relative to control; details: read-out: Activity
G-361 [5] = test: Cytotoxicity against Homo sapiens (human) G361 cells assessed as cell growth at 10^-4 M by SRB assay relative to control; details: read-out: Activity
G-361 [6] = test: Cytotoxicity against Homo sapiens (human) G361 cells by SRB assay

Structure (SMILES) | zone of inhibition at 20 µg/mL (Escherichia coli) | zone of inhibition at 20 µg/mL (Bacillus subtilis) | zone of inhibition at 20 µg/mL (Staphylococcus aureus) | zone of inhibition at 20 µg/mL [1] | growth at 0.1 µM (G-361 [2]) | growth at 1 µM (G-361 [3]) | growth at 10 µM (G-361 [4]) | growth at 100 µM (G-361 [5]) | GI50 (G-361 [6]) | TGI (G-361 [6]) | LC50 (G-361 [6])
c1ccc(-n2ncc3c(NCc4ccco4)ncnc32)cc1 | 12.8 mm | 13.6 mm | 13 mm | 13.6 mm | 100% | 97.5% | 92.3% | 51.7% | > 100 µM | > 100 µM | –
CC(C)Nc1ncnc2c1cnn2-c1ccccc1 | 13.3 mm | 13.3 mm | 13.6 mm | 13.6 mm | – | – | – | – | – | – | –
ClCc1nc(Cl)c2cnn(-c3ccccc3)c2n1 | – | – | – | – | 100% | 100% | 90.9% | -59.3% | 2.08 µM | 33.2 µM | > 100 µM
CCc1nc(NC(C)C)c2cnn(-c3ccccc3)c2n1 | 13.3 mm | 13.3 mm | 13.6 mm | 13.6 mm | 100% | 96.4% | 83.3% | 40% | 38 µM | > 100 µM | > 100 µM
CCCCNc1nc(CC)nc2c1cnn2-c1ccccc1 | 12.7 mm | 12.8 mm | 13.3 mm | 13 mm | 100% | 96.5% | 84.8% | -62.5% | 2.02 µM | 32 µM | > 100 µM
CCc1nc(NCc2ccco2)c2cnn(-c3ccccc3)c2n1 | 12.7 mm | 13.6 mm | 13.3 mm | 13.6 mm | 100% | 96.5% | 86.3% | -61% | 2.04 µM | 32 µM | > 100 µM
CCc1nc(N2CCOCC2)c2cnn(-c3ccccc3)c2n1 | 13 mm | 13.3 mm | 13 mm | 13 mm | 100% | 85.5% | 65.9% | 30.9% | 28 µM | > 100 µM | > 100 µM
CCc1nc(Nc2ccccc2)c2cnn(-c3ccccc3)c2n1 | 13.3 mm | 13.3 mm | 13.6 mm | 13.6 mm | – | – | – | – | – | – | –
CC(C)c1nc(Nc2ccccc2)c2cnn(-c3ccccc3)c2n1 | 12.8 mm | 13.5 mm | 13.3 mm | 13.3 mm | 100% | 100% | 91.9% | 19.2% | 32 µM | > 100 µM | > 100 µM
CCCNCc1nc(NCCC)c2cnn(-c3ccccc3)c2n1 | 13.3 mm | 13.6 mm | 13.3 mm | 13.3 mm | 100% | 99.6% | 100% | 75.1% | > 100 µM | > 100 µM | –
CC(C)NCc1nc(NC(C)C)c2cnn(-c3ccccc3)c2n1 | 13 mm | 13.6 mm | 1.3 mm | 1.33 mm | 100% | 100% | 99.7% | 56.5% | > 100 µM | > 100 µM | > 100 µM
CCNCc1nc(NCC)c2cnn(-c3ccccc3)c2n1 | 13.3 mm | 12.7 mm | 12.6 mm | 13.6 mm | 100% | 100% | 100% | 87.7% | > 100 µM | > 100 µM | > 100 µM
c1ccc(-n2ncc3c(N4CCOCC4)nc(CN4CCOCC4)nc32)cc1 | 13.6 mm | 13 mm | 13.6 mm | 13.3 mm | 99.7% | 99.6% | 94.3% | 47.6% | > 100 µM | > 100 µM | > 100 µM
